In this experiment the target is Alkaline phosphatase, placental type (Homo sapiens) (UniProt P05187). In words: inhibition of human placental alkaline phosphatase – biochemical, luminescence, HTS (AID 690). The settings on record: purified PLAP, luminescent substrate.

Calls of active or inactive are those of the source. The rule behind the calls is not given here.

This note sets out measurements from PubChem BioAssay AID690 (Sanford-Burnham Center for Chemical Genomics, 2007).

In general, IC50 refers to the concentration that gives 50% inhibition.

Alkaline phosphatase, placental type (Homo sapiens), sequence (P05187 whole entry, looked up): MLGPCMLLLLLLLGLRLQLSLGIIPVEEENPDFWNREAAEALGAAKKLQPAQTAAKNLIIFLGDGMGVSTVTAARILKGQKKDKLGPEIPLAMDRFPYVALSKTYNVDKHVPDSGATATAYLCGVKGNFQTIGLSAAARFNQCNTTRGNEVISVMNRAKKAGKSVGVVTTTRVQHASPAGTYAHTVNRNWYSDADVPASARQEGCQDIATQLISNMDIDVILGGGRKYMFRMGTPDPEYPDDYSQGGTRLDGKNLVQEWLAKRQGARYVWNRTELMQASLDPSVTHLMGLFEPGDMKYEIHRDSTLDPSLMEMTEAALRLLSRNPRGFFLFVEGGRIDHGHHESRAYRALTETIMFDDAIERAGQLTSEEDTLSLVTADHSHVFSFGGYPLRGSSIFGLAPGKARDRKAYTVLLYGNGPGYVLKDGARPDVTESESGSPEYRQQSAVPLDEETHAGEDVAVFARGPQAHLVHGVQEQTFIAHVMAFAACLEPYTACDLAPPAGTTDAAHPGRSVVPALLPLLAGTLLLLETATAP

In the case of `CCCc1[nH]nc2c1C(c1ccc(O)c(OC)c1)C(C#N)=C(N)O2` (stereo not given), the concentration for half-maximal inhibition (IC50) is 11.8 µM.
For `CCn1c(SCC(=O)c2ccc(O)c(O)c2)nnc1-c1ccccc1OC` the value was 4.36 µM; for `CCCCOc1ccc(CSC(=N)N)cc1[N+](=O)[O-]`, 78.3 µM.
As for `CCN1/C(=C/c2ccc3ccccc3[n+]2CC)C=Cc2ccccc21`, the figure is 10.6 µM; as for `O=C(CCCn1c(SCC(=O)c2ccc(O)c(O)c2)nc2ccccc2c1=O)NCC1CCCO1` (stereo not given), 3.45 µM; as for `CCN1/C(=C\C=C\C2=[N+](CC)c3ccccc3C2(C)C)C(C)(C)c2ccccc21`, 22 µM.
As for `CC1(C)Cc2c(sc3nc4n(c(=N)c23)CCCCC4)CO1`, the IC50 was 1.88 µM.
For `COC(=O)C(N)Cc1ccc(O)c(O)c1` (stereo not given), the concentration for half-maximal inhibition (IC50) was 10.2 µM.
For `O=c1oc2cc(Cl)ccc2n1CSc1nc2ccccc2s1` the value was 85.6 µM; for `COc1cc(/C=C(/C(=O)c2cccs2)c2nc3ccccc3[nH]2)cc(OC)c1O`, 20.4 µM.
For `O=C(NCc1cccnc1)NC1(C(F)(F)F)Oc2ccc(Cl)cc2O1` (stereo not given), the half-inhibitory concentration (IC50) was 12.4 µM.
As to `C=CCN1C(=O)NC2(O)C(=O)c3ccccc3C12O` (stereo not given), the IC50 is 15.8 µM.
Turning to `C=CCn1c(SCC(=O)c2ccc(O)c(O)c2)nnc1-c1ccccc1OC`, the half-inhibitory concentration (IC50) was 1.55 µM.
For `O=C(CSc1n[nH]c(-c2ccccc2)n1)c1ccc(O)c(O)c1` the value was 11.1 µM.
For `CSc1cccc(NC(=O)/C=C/c2ccccc2)c1` the value was 75.8 µM; for `COCc1[nH]nc2c1C(c1cc(OC)c(O)c(OC)c1)C(C#N)=C(N)O2` (stereo not given), 23 µM; for `Cc1cc([N+](=O)[O-])ccc1NCc1ccc2ccccc2c1`, 75 µM.
As for `CN1c2ccccc2C(C)(C)[C@]12C=Cc1cc(O)ccc1O2`, the figure is 43.9 µM; as for `CN(C)c1ccc(/C=C/C(=O)c2cccc(Br)c2)cc1`, 35.5 µM.
For the compound `Clc1ccc(/C=C/c2nc3ccccc3[nH]2)c(Cl)c1`, the IC50 is 6.37 µM.
Consider `COc1cc(/C=C2\N=C3CCCCCN3C2=O)ccc1O`, for which the 50% inhibitory concentration (IC50) was 25.6 µM.
For `CN1/C(=C\C=C2\N=C(c3ccc(F)cc3)OC2=O)C(C)(C)c2ccccc21` the value was 35.7 µM.
Consider `Clc1ccc(CSCCc2ccncc2)cc1`, for which the IC50 is 5.76 µM.
As for `Cc1ccc(C)c(NC(=S)NC(NC(=O)Cc2cccc3ccccc23)C(Cl)(Cl)Cl)c1` (stereo not given), the figure is 27.5 µM; as for `CCOc1ccccc1OCc1nn2c(-c3ccc(C)cc3)nnc2s1`, 55.8 µM.
On to `CCOC(=O)SC1=N/C(=C\c2ccc(N(C)C)cc2)C(=O)S1`, for which the half-maximal inhibitory concentration (IC50) was 47.4 µM.
For the compound `CC1=NN(Cc2ccccc2)C(=O)/C1=C\c1ccc(N(C)C)cc1`, the half-maximal inhibitory concentration (IC50) was 18.3 µM.
For `COC(=O)C1=C(O)/C(=C\c2ccc(O)c(OC)c2)N=C1C` the value was 28.8 µM; for `c1ccc(CSCCc2ccncc2)cc1`, 2.01 µM.
As for `O=c1sc2ccccc2n1COc1ccc(Cl)cc1`, the figure is 99.3 µM; as for `CN1C(=O)/C(=C2/C=Cc3ccccc3N2CCCS(=O)(=O)O)SC1=S`, 15.2 µM.
For `O=C1C2C3C=CC(C3)C2C(=O)N1c1n[nH]c(-c2cccnc2)n1` (stereo not given) the value was 29.8 µM; for `CNc1nnc(-c2cc3ccccc3oc2=O)s1`, 2.85 µM; for `COC(=O)c1ccc2c(c1)C(C)(C)C(/C=C/c1ccc(O)cc1)=[N+]2C`, 10.8 µM.
On to `O=C(NC1(C(F)(F)F)Oc2ccc(Cl)cc2O1)N1CCC2(CC1)OCCO2` (stereo not given), for which the IC50 was 4.87 µM.
For `O=C1C2C3C=CC(C3)C2C(=O)N1c1n[nH]c(-c2ccccc2)n1` (stereo not given), the IC50 is 7.63 µM.
Consider `Cc1cc2nc(C3CCN(Cc4nnnn4Cc4cccs4)CC3)[nH]c2cc1C`, for which the IC50 was 7.67 µM.
For `O=C(C[n+]1ccc(C(=O)N/N=C/c2ccc(Br)cc2)cc1)c1ccccc1` the value was 34.3 µM; for `COC(=O)c1ccc2c(c1)C(C)(C)C(/C=C/c1ccccc1O)=[N+]2C`, 15 µM.
Regarding `CN(C)c1ccc(/C=C/c2cc[n+](C)cc2)cc1`, the IC50 is 17.3 µM.
As for `COc1cc(/C=C2/CCC/C(=C\c3cc(O)c(OC)c(Cl)c3)C2=O)cc(Cl)c1O`, the figure is 28.2 µM; as for `CN1C(=O)/C(=C\c2ccc(N3CCCCC3)o2)C(=O)NC1=S`, 10.1 µM; as for `CC(=O)Oc1cc2oc(=O)cc(C)c2cc1OC(C)=O`, 6.24 µM.
In the case of `COc1ccc(-n2nnnc2SCC(=O)c2ccc(O)c(O)c2)cc1`, the IC50 is 1.13 µM.
Turning to `Cc1nn(-c2ccccc2)c(C)c1/C=N/NC(=O)c1cc(-c2ccccc2)n[nH]1`, the IC50 was 7.34 µM.
As for `COC(=O)c1cn[nH]c1NC(=S)Nc1ccccc1C`, the figure is 19.3 µM; as for `CCn1c(SCC(=O)c2ccc(O)c(O)c2)nnc1-c1ccccc1`, 4.25 µM.
For `COc1cccc(OCCNc2cc(Cl)ccc2[N+](=O)[O-])c1` the value was 60.7 µM; for `CCOc1cc(/C=C(/C#N)C(=O)Nc2ccc(O)cc2)cc(Br)c1O`, 48.5 µM.
As for `O=C(CSc1nc2ccccc2c(=O)[nH]1)c1ccc(O)c(O)c1`, the figure is 9.59 µM; as for `Oc1ccc(C2=Nn3c(nnc3-c3ccco3)SC2)cc1O`, 21.5 µM; as for `CN(C)CCNc1ncnc2ccccc12`, 71.3 µM.
For `Clc1ccc(CSc2nnnn2-c2ccc3c(c2)OCO3)c(Cl)c1`, the IC50 was 73.3 µM.
As for `CC1CCCC/C1=N/Nc1ccc([N+](=O)[O-])cc1[N+](=O)[O-]` (stereo not given), the figure is 7.24 µM; as for `COc1cccc(-c2nnc3n2N=C(c2cccc(Br)c2)CS3)c1`, 76.1 µM.
Turning to `C/C(=N\Nc1ccc([N+](=O)[O-])cc1)c1cccc(N)c1`, the half-maximal inhibitory concentration (IC50) is 51.9 µM.
Regarding `Cc1cc(C)nc(NN2C(=O)/C(=C/c3ccc(O)cc3)SC2=S)n1`, the half-inhibitory concentration (IC50) is 18.8 µM.
As to `CCC1CCc2c(c3ccccc3[nH]c2=O)O1` (stereo not given), the 50% inhibitory concentration (IC50) is 14.1 µM.
With `O/N=C/c1cc(Cl)ccc1OCc1cccc2ccccc12`, the IC50 is 42.3 µM.
As for `CCOC(=O)c1c(-n2c(C)cc(C=C3C(=O)NC(=S)NC3=O)c2C)sc2c1CCCC2`, the figure is 63.9 µM.
As for `c1ccc(Nc2cccc(Nc3ccccc3)n2)cc1`, the figure is 65.4 µM; as for `CCc1ccc(NSc2ccccc2[N+](=O)[O-])cc1`, 29.2 µM; as for `Oc1ccc(CC2CC3CCN2CC3)cc1O` (stereo not given), 36 µM.
As to `CC(C)C1N=C2c3ccccc3N=C(SCC(=O)c3ccc(O)c(O)c3)N2C1=O` (stereo not given), the half-maximal inhibitory concentration (IC50) was 3.11 µM.
Turning to `O=C1NC(=S)N/C1=C/c1cc([N+](=O)[O-])ccc1O`, the IC50 entry is “inactive”.
In the case of `COc1ccc(-c2nnc(-c3ccc(Br)o3)o2)cc1OC`, the half-inhibitory concentration (IC50) was 10.3 µM.
Turning to `CCN1/C(=C/c2ccc3cccc(C)c3[n+]2CC)Sc2ccccc21`, the IC50 was 11.9 µM.
For `c1ccc(-n2ncc3c2ncn2cnnc32)cc1`, the IC50 is 2.11 µM.
For `COCCNC(=O)NC1(C(F)(F)F)Oc2ccc(Cl)cc2O1` (stereo not given) the value was 12.3 µM; for `CCCCOC(=O)C(C)Nc1n[nH]c(=S)[nH]c1=O` (stereo not given), 43.3 µM.
For `O=C1C2CC=CCC2C(=O)N1c1n[nH]c(-c2ccccc2)n1` (stereo not given), the IC50 is 8.77 µM.
For `CCn1c(CSc2nc3ccccc3s2)nnc1SCC(=O)c1ccc(O)c(O)c1` the value was 1.52 µM; for `CC(C)N=c1scc(-c2ccco2)n1/N=C/c1ccc(O)c(O)c1`, 4.97 µM.
On to `O=C(Nc1cc(N2CCOCC2)ncn1)NC1(C(F)(F)F)Oc2ccc(Cl)cc2O1` (stereo not given), for which the IC50 is 12.7 µM.
As for `CN(C)c1ccc(/C=C/C=C2/SC(=S)N(c3ccccc3)C2=O)cc1`, the figure is 9.81 µM; as for `N#C/C(=C\c1ccc(O)c(O)c1)S(=O)(=O)c1ccccc1`, 4.1 µM.
As for `Cc1[nH]c2ccccc2c1/C=C/c1cc[n+](C)cc1`, the figure is 29.1 µM; as for `N#Cc1c(SCC(=O)OCc2ccccc2)nsc1SCC(=O)OCc1ccccc1`, 62.9 µM; as for `O=C1Nc2ccc(Br)cc2/C1=N/N=C/C1=C(N2CCOCC2)C(=C\c2ccccc2)/CC1`, 45.6 µM.
For `O=P(O)(O)c1ccccc1OCc1ccccc1` the value was 8.43 µM.
